Measurements as given in PubChem BioAssay AID1745844 (Carcinogenic Potency Database (CPDB), 2022).
“And” between values parts separate entries of the source, which are not always exact repeats. Equal values may be shown once. The source made the active and inactive calls. The rule behind the calls is not given here.

Test system: rodent lifetime carcinogenesis bioassay, tumor incidence TD50
Assay: chronic cancer bioassays in animals – CPDB, compiled studies (AID 1745844)

Structure (SMILES): NNC(N)=S
- carcinogen call (mouse, strain Swiss albino, females, in drinking water, site: liver, lesion: hepatoma, dosed 123 weeks, study length 124 weeks): negative (inactive)
- carcinogen call (mouse, strain Swiss albino, females, in drinking water, site: lung, lesion: one or several types, types not named, dosed 123 weeks, study length 124 weeks): negative (inactive)
- carcinogen call (mouse, strain Swiss albino, males, in drinking water, site: liver, lesion: hepatoma, dosed 115 weeks, study length 121 weeks): negative (inactive)
- carcinogen call (mouse, strain Swiss albino, males, in drinking water, site: lung, lesion: one or several types, types not named, dosed 115 weeks, study length 121 weeks): negative (inactive)
- TD50 (rat, strain Charles River CD (Sprague-Dawley), females, in feed, site: mammary gland, lesion: one or several types, types not named, dosed 78 weeks, study length 104 weeks): 3.07 mg/kg/day

Structure (SMILES): C/C=C/C=C/C=O
- TD50 (mouse, strain B6C3F1, females, by gavage, site: forestomach, lesion: squamous-cell carcinoma + squamous-cell papilloma, dosed 104 weeks, study length 104 weeks): 129 mg/kg/day
- TD50 (mouse, strain B6C3F1, females, by gavage, site: forestomach, lesion: squamous-cell carcinoma, dosed 104 weeks, study length 104 weeks): 580 mg/kg/day
- TD50 (mouse, strain B6C3F1, females, by gavage, site: forestomach, lesion: squamous-cell papilloma, dosed 104 weeks, study length 104 weeks): 165 mg/kg/day
- TD50 (mouse, strain B6C3F1, females, by gavage, site: skin, lesion: fibrosarcoma + fibrous histiocytoma, dosed 104 weeks, study length 104 weeks): 218 mg/kg/day
- TD50 (mouse, strain B6C3F1, males, by gavage, site: any site (literature study), lesion: several types, types named in the paper, dosed 104 weeks, study length 104 weeks): 279 mg/kg/day
- TD50 (mouse, strain B6C3F1, males, by gavage, site: forestomach, lesion: squamous-cell carcinoma + squamous-cell papilloma, dosed 104 weeks, study length 104 weeks): 279 mg/kg/day
- TD50 (mouse, strain B6C3F1, males, by gavage, site: forestomach, lesion: squamous-cell papilloma, dosed 104 weeks, study length 104 weeks): 354 mg/kg/day
- TD50 (mouse, strain B6C3F1, males, by gavage, site: liver, lesion: hepatocellular adenoma + hepatoblastoma + hepatocellular carcinoma, dosed 104 weeks, study length 104 weeks): 211 mg/kg/day
- TD50 (mouse, strain B6C3F1, males, by gavage, site: lung, lesion: alveolar/bronchiolar adenoma + alveolar/bronchiolar carcinoma, dosed 104 weeks, study length 104 weeks): 1980 mg/kg/day
- TD50 (mouse, strain B6C3F1, males, by gavage, site: tongue, lesion: squamous-cell carcinoma, dosed 104 weeks, study length 104 weeks): 2080 mg/kg/day
- TD50 (rat, strain Fischer 344, females, by gavage, site: any site (literature study), lesion: several types, types named in the paper, dosed 104 weeks, study length 104 weeks): 112 mg/kg/day
- TD50 (rat, strain Fischer 344, females, by gavage, site: forestomach, lesion: squamous-cell papilloma, dosed 104 weeks, study length 104 weeks): 102 mg/kg/day
- TD50 (rat, strain Fischer 344, males, by gavage, site: adrenal medulla, lesion: pheochromocytoma, malignant, dosed 104 weeks, study length 104 weeks): 415 mg/kg/day
- TD50 (rat, strain Fischer 344, males, by gavage, site: any site (literature study), lesion: several types, types named in the paper, dosed 104 weeks, study length 104 weeks): 107 mg/kg/day
- TD50 (rat, strain Fischer 344, males, by gavage, site: forestomach, lesion: squamous-cell carcinoma + squamous-cell papilloma, dosed 104 weeks, study length 104 weeks): 44.7 mg/kg/day
- TD50 (rat, strain Fischer 344, males, by gavage, site: forestomach, lesion: squamous-cell papilloma, dosed 104 weeks, study length 104 weeks): 46.1 mg/kg/day

Structure (SMILES): c1ccncc1
- TD50 (mouse, strain B6C3F1, females, in drinking water, site: all sites, lesion: hemangioma + hemangiosarcoma, dosed 104 weeks, study length 104 weeks): 690 mg/kg/day
- TD50 (mouse, strain B6C3F1, females, in drinking water, site: all sites, lesion: hemangioma, dosed 104 weeks, study length 104 weeks): 868 mg/kg/day
- TD50 (mouse, strain B6C3F1, females, in drinking water, site: any site (literature study), lesion: several types, types named in the paper, dosed 104 weeks, study length 104 weeks): 338 mg/kg/day
- TD50 (mouse, strain B6C3F1, females, in drinking water, site: liver, lesion: hepatoblastoma + hepatocellular carcinoma, dosed 104 weeks, study length 104 weeks): 27.2 mg/kg/day
- TD50 (mouse, strain B6C3F1, females, in drinking water, site: liver, lesion: hepatoblastoma, dosed 104 weeks, study length 104 weeks): 132 mg/kg/day
- TD50 (mouse, strain B6C3F1, females, in drinking water, site: liver, lesion: hepatocellular adenoma + hepatoblastoma + hepatocellular carcinoma, dosed 104 weeks, study length 104 weeks): 150 mg/kg/day
- TD50 (mouse, strain B6C3F1, females, in drinking water, site: liver, lesion: hepatocellular adenoma, dosed 104 weeks, study length 104 weeks): 41.9 mg/kg/day
- TD50 (mouse, strain B6C3F1, females, in drinking water, site: liver, lesion: hepatocellular carcinoma, dosed 104 weeks, study length 104 weeks): 41.6 mg/kg/day
- TD50 (mouse, strain B6C3F1, females, in drinking water, site: lung, lesion: alveolar/bronchiolar adenoma + alveolar/bronchiolar carcinoma, dosed 104 weeks, study length 104 weeks): 1990 mg/kg/day
- TD50 (mouse, strain B6C3F1, males, in drinking water, site: any site (literature study), lesion: several types, types named in the paper, dosed 103 weeks, study length 103 weeks): 25700 mg/kg/day
- TD50 (mouse, strain B6C3F1, males, in drinking water, site: liver, lesion: hepatoblastoma + hepatocellular carcinoma, dosed 103 weeks, study length 103 weeks): 22.1 mg/kg/day
- TD50 (mouse, strain B6C3F1, males, in drinking water, site: liver, lesion: hepatoblastoma, dosed 103 weeks, study length 103 weeks): 68.1 mg/kg/day
- TD50 (mouse, strain B6C3F1, males, in drinking water, site: liver, lesion: hepatocellular adenoma + hepatoblastoma + hepatocellular carcinoma, dosed 103 weeks, study length 103 weeks): 496 mg/kg/day
- TD50 (mouse, strain B6C3F1, males, in drinking water, site: liver, lesion: hepatocellular adenoma, dosed 103 weeks, study length 103 weeks): 488 mg/kg/day
- TD50 (mouse, strain B6C3F1, males, in drinking water, site: liver, lesion: hepatocellular carcinoma, dosed 103 weeks, study length 103 weeks): 28.6 mg/kg/day
- TD50 (rat, strain Fischer 344, females, in drinking water, site: all sites, lesion: mononuclear-cell leukemia, dosed 104 weeks, study length 104 weeks): 31.2 mg/kg/day
- TD50 (rat, strain Fischer 344, females, in drinking water, site: any site (literature study), lesion: several types, types named in the paper, dosed 104 weeks, study length 104 weeks): 32.9 mg/kg/day
- TD50 (rat, strain Fischer 344, males, in drinking water, site: any site (literature study), lesion: several types, types named in the paper, dosed 103 weeks, study length 103 weeks): 31 mg/kg/day
- TD50 (rat, strain Fischer 344, males, in drinking water, site: kidney, lesion: tubule adenoma + tubule carcinoma, dosed 103 weeks, study length 103 weeks): 67.3 mg/kg/day and 74.6 mg/kg/day
- TD50 (rat, strain Fischer 344, males, in drinking water, site: kidney, lesion: tubule adenoma, dosed 103 weeks, study length 103 weeks): 73.7 mg/kg/day and 75.6 mg/kg/day
- TD50 (rat, strain Fischer 344, males, in drinking water, site: liver, lesion: hepatocellular adenoma + hepatoblastoma + hepatocellular carcinoma, dosed 103 weeks, study length 103 weeks): 160 mg/kg/day
- TD50 (rat, strain Wistar, males, in drinking water, site: any site (literature study), lesion: several types, types named in the paper, dosed 103 weeks, study length 103 weeks): 7.14 mg/kg/day
- TD50 (rat, strain Wistar, males, in drinking water, site: testis, lesion: interstitial-cell adenoma, bilateral + interstitial-cell adenoma, dosed 103 weeks, study length 103 weeks): 22.4 mg/kg/day
- TD50 (rat, strain Wistar, males, in drinking water, site: thyroid gland, lesion: follicular-cell adenoma, bilateral + follicular-cell adenoma, dosed 103 weeks, study length 103 weeks): 38.4 mg/kg/day

Structure (SMILES): CC(=O)O[C@]1(C(C)=O)CC[C@H]2[C@@H]3C=C(Cl)C4=CC(=O)[C@@H]5C[C@@H]5[C@]4(C)[C@H]3CC[C@@]21C
- TD50 (mouse, strain C57BL/10J, females, in feed, site: liver, lesion: hepatocellular adenoma, dosed 97 weeks, study length 97 weeks): 1120 mg/kg/day
- TD50 (mouse, strain C57BL/10J, females, in feed, site: liver, lesion: hepatocellular carcinoma, dosed 97 weeks, study length 97 weeks): 254 mg/kg/day
- TD50 (mouse, strain C57BL/10J, females, in feed, site: liver, lesion: several types, types named in the paper, dosed 97 weeks, study length 97 weeks): 254 mg/kg/day
- TD50 (mouse, strain C57BL/10J, females, in feed, site: pylorus, lesion: adenomatous polyp, dosed 97 weeks, study length 97 weeks): 16.8 mg/kg/day
- TD50 (mouse, strain C57BL/10J, males, in feed, site: liver, lesion: hepatocellular adenoma, dosed 104 weeks, study length 104 weeks): 333 mg/kg/day
- TD50 (mouse, strain C57BL/10J, males, in feed, site: liver, lesion: hepatocellular carcinoma, dosed 104 weeks, study length 104 weeks): 179 mg/kg/day
- TD50 (mouse, strain C57BL/10J, males, in feed, site: liver, lesion: several types, types named in the paper, dosed 104 weeks, study length 104 weeks): 115 mg/kg/day
- TD50 (mouse, strain C57BL/10J, males, in feed, site: pylorus, lesion: adenomatous polyp, dosed 104 weeks, study length 104 weeks): 31.6 mg/kg/day

Structure (SMILES): N[C@@H](CC(=O)O)C(=O)O
- TD50 (rat, strain F344/DuCrj, females, in drinking water, site: any site (literature study), lesion: several types, types named in the paper, dosed 100 weeks, study length 100 weeks): 8340 mg/kg/day (inactive)
- carcinogen call (rat, strain F344/DuCrj, females, in drinking water, site: liver, lesion: one or several types, types not named, dosed 100 weeks, study length 100 weeks): negative (inactive)
- TD50 (rat, strain F344/DuCrj, males, in drinking water, site: any site (literature study), lesion: several types, types named in the paper, dosed 100 weeks, study length 100 weeks): 2720 mg/kg/day (inactive)
- carcinogen call (rat, strain F344/DuCrj, males, in drinking water, site: liver, lesion: one or several types, types not named, dosed 100 weeks, study length 100 weeks): negative (inactive)
